Test results taken from ChEMBL document CHEMBL1201862, “PubChem BioAssay data set” (2004).
Where “and” joins values, the source holds several entries; their conditions need not be identical. Equal values may be shown once.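 Grown in 96-well plates, cells were treated for 48 hours with each compound at five concentrations. Insufficient inhibition: endpoint recorded as highest concentration tested. GI50 marks 50% less growth.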 Calls of active or inactive are those of the source. Rule as the data show it: active = GI50 up to about 1.1 µM and inactive = higher.

Tests used:
Test in all cases: growth of human tumour cells (NCI), 48 h
UO-31 = tested on: UO-31
MCF7 = tested on: MCF7
SW-620 = tested on: SW-620
M14 = tested on: M14
RXF 393 = tested on: RXF 393
IGROV-1 = tested on: IGROV-1
SNB-75 = tested on: SNB-75
SF-539 = tested on: SF-539
COLO 205 = tested on: COLO 205
SK-MEL-28 = tested on: SK-MEL-28
BT-549 = tested on: BT-549
RPMI-8226 = tested on: RPMI-8226
MDA-MB-435 = tested on: MDA-MB-435
SF-268 = tested on: SF-268
SF-295 = tested on: SF-295
SNB-19 = tested on: SNB-19
786-0 = tested on: 786-0
SK-MEL-2 = tested on: SK-MEL-2
HCT-116 = tested on: HCT-116
TK-10 = tested on: TK-10
HCC 2998 = tested on: HCC 2998
OVCAR-5 = tested on: OVCAR-5
EKVX = tested on: EKVX
SN12C = tested on: SN12C
HOP-62 = tested on: HOP-62
SR = tested on: SR
PC-3 = tested on: PC-3
UACC-257 = tested on: UACC-257
T47D = tested on: T47D
A549 = tested on: A549
SK-OV-3 = tested on: SK-OV-3
KM12 = tested on: KM12
NCI-H226 = tested on: NCI-H226
NCI/ADR-RES = tested on: NCI/ADR-RES
U-251 = tested on: U-251
MDA-MB-231 = tested on: MDA-MB-231
DU-145 = tested on: DU-145
A498 = tested on: A498
UACC-62 = tested on: UACC-62
HOP-92 = tested on: HOP-92
MOLT-4 = tested on: MOLT-4
ACHN = tested on: ACHN
NCI-H460 = tested on: NCI-H460
OVCAR-3 = tested on: OVCAR-3
CAKI-1 = tested on: CAKI-1
SK-MEL-5 = tested on: SK-MEL-5
OVCAR-8 = tested on: OVCAR-8
HT-29 = tested on: HT-29
OVCAR-4 = tested on: OVCAR-4
HCT-15 = tested on: HCT-15
NCI-H23 = tested on: NCI-H23
CCRF-CEM = tested on: CCRF-CEM
Hs-578T = tested on: Hs-578T
LOX IMVI = tested on: LOX IMVI
HL-60 = tested on: HL-60
Malme-3M = tested on: Malme-3M
NCI-H522 = tested on: NCI-H522
K562 = tested on: K562

With `CC1(C)O[C@@H]([C@H](O)CO)[C@H](O)[C@@H](C2SCCCS2)O1` the GI50 (UO-31) was > 100 µM (inactive), the GI50 (MCF7) was > 100 µM (inactive) and the GI50 (SW-620) was > 100 µM (inactive). The GI50 (M14) was > 100 µM (inactive), the GI50 (RXF 393) was > 100 µM (inactive) and the GI50 (IGROV-1) was > 100 µM (inactive). The GI50 (SNB-75) was > 100 µM (inactive), the GI50 (SF-539) was > 100 µM (inactive) and the GI50 (COLO 205) was > 100 µM (inactive). For the same molecule, the GI50 (SK-MEL-28) was > 100 µM (inactive), the GI50 (BT-549) was > 100 µM (inactive) and the GI50 (RPMI-8226) was 50.6 µM (inactive). The GI50 (MDA-MB-435) was > 100 µM (inactive), the GI50 (SF-268) was > 100 µM (inactive) and the GI50 (SF-295) was > 100 µM (inactive). The GI50 (SNB-19) was > 100 µM (inactive), the GI50 (786-0) was > 100 µM (inactive) and the GI50 (SK-MEL-2) was > 100 µM (inactive). For the same molecule, the GI50 (HCT-116) was > 100 µM (inactive), the GI50 (TK-10) was > 100 µM (inactive) and the GI50 (HCC 2998) was > 100 µM (inactive). For the same molecule, the GI50 (OVCAR-5) was > 100 µM (inactive), the GI50 (EKVX) was > 100 µM (inactive) and the GI50 (SN12C) was > 100 µM (inactive). The GI50 (HOP-62) was > 100 µM (inactive), the GI50 (SR) was 23.2 µM (inactive) and the GI50 (PC-3) was > 100 µM (inactive). For the same molecule, the GI50 (UACC-257) was > 100 µM (inactive), the GI50 (T47D) was > 100 µM (inactive) and the GI50 (A549) was > 100 µM (inactive). The GI50 (SK-OV-3) was > 100 µM (inactive), the GI50 (KM12) was > 100 µM (inactive) and the GI50 (NCI-H226) was > 100 µM (inactive). For the same molecule, the GI50 (NCI/ADR-RES) was > 100 µM (inactive), the GI50 (U-251) was > 100 µM (inactive) and the GI50 (MDA-MB-231) was > 100 µM (inactive). For the same molecule, the GI50 (DU-145) was > 100 µM (inactive), the GI50 (A498) was 59.8 µM (inactive) and the GI50 (UACC-62) was > 100 µM (inactive). The GI50 (HOP-92) was 34.4 µM (inactive), the GI50 (MOLT-4) was > 10 µM (inactive) and the GI50 (ACHN) was > 100 µM (inactive). The GI50 (NCI-H460) was > 100 µM (inactive), the GI50 (OVCAR-3) was > 100 µM (inactive) and the GI50 (CAKI-1) was > 100 µM (inactive). For the same molecule, the GI50 (SK-MEL-5) was > 100 µM (inactive), the GI50 (OVCAR-8) was > 100 µM (inactive) and the GI50 (HT-29) was > 100 µM (inactive). For the same molecule, the GI50 (OVCAR-4) was > 100 µM (inactive), the GI50 (HCT-15) was > 100 µM and the GI50 (NCI-H23) was > 100 µM (inactive).

With `COc1ccc(-c2c(C#N)c(O)n(C3OC(COC(C)=O)C(OC(C)=O)C(OC(C)=O)C3OC(C)=O)c(=S)c2C#N)cc1` (configuration not stated) the GI50 (UO-31) was 33.4 µM (inactive) and 26.1 µM (inactive), the GI50 (MCF7) was > 100 µM (inactive) and the GI50 (SW-620) was > 100 µM (inactive). The GI50 (M14) was > 100 µM (inactive), the GI50 (RXF 393) was 32.1 µM (inactive) and 26 µM (inactive) and the GI50 (SNB-75) was 26.5 µM (inactive) and 18.9 µM (inactive). The GI50 (SF-539) was 55.2 µM (inactive) and 36.1 µM (inactive), the GI50 (BT-549) was 32.7 µM (inactive) and 24.8 µM (inactive) and the GI50 (SF-268) was 25.1 µM (inactive) and 27.9 µM (inactive). The GI50 (786-0) was 31.7 µM (inactive) and 34 µM (inactive), the GI50 (HCT-116) was 64 µM (inactive) and 67.3 µM (inactive) and the GI50 (TK-10) was 31.6 µM (inactive) and 36.8 µM (inactive). For the same molecule, the GI50 (HCC 2998) was 26.5 µM (inactive) and 25.1 µM (inactive), the GI50 (OVCAR-5) was > 100 µM (inactive) and the GI50 (EKVX) was 25.9 µM (inactive) and 37.3 µM (inactive). The GI50 (CCRF-CEM) was > 100 µM (inactive) and 67.8 µM (inactive), the GI50 (SN12C) was 94.8 µM (inactive) and 67 µM (inactive) and the GI50 (Hs-578T) was 30.7 µM (inactive) and 32.1 µM (inactive). The GI50 (HOP-62) was 31.6 µM (inactive) and 27 µM (inactive), the GI50 (PC-3) was 44.3 µM (inactive) and 66.5 µM (inactive) and the GI50 (T47D) was 21.5 µM (inactive) and 30.3 µM (inactive). The GI50 (A549) was > 100 µM (inactive), the GI50 (SK-OV-3) was 33.9 µM (inactive) and 28.6 µM (inactive) and the GI50 (KM12) was 65.9 µM (inactive). For the same molecule, the GI50 (NCI-H226) was > 100 µM (inactive) and 72.8 µM (inactive), the GI50 (NCI/ADR-RES) was > 100 µM (inactive) and the GI50 (LOX IMVI) was 93.1 µM (inactive) and 51.5 µM (inactive). The GI50 (DU-145) was 84.5 µM (inactive), the GI50 (A498) was 30.3 µM (inactive) and 32.1 µM (inactive) and the GI50 (UACC-62) was 26 µM (inactive) and 25.7 µM (inactive). For the same molecule, the GI50 (HOP-92) was 19 µM (inactive) and 17.8 µM (inactive), the GI50 (ACHN) was 48.6 µM (inactive) and 54.8 µM (inactive) and the GI50 (NCI-H460) was 68.7 µM (inactive) and 37.6 µM (inactive). For the same molecule, the GI50 (CAKI-1) was 31.4 µM (inactive) and 19.1 µM (inactive), the GI50 (HL-60) was 22.2 µM (inactive) and 24.5 µM (inactive) and the GI50 (OVCAR-8) was 28.4 µM (inactive) and 36.6 µM (inactive). For the same molecule, the GI50 (HT-29) was > 100 µM (inactive), the GI50 (OVCAR-4) was 29.1 µM (inactive) and 43.7 µM (inactive) and the GI50 (HCT-15) was > 100 µM. The GI50 (NCI-H23) was 97.5 µM (inactive) and 79.4 µM (inactive).

`Cc1cccc2c1C/C(=C\c1cccc(C)c1C(=O)O)C2=O` was tested, and the GI50 (UO-31) was > 100 µM (inactive), the GI50 (MCF7) was > 100 µM (inactive) and the GI50 (SW-620) was > 100 µM (inactive). The GI50 (M14) was > 100 µM (inactive), the GI50 (RXF 393) was > 100 µM (inactive) and the GI50 (IGROV-1) was > 100 µM (inactive). For the same molecule, the GI50 (SNB-75) was > 100 µM (inactive), the GI50 (SF-539) was > 100 µM (inactive) and the GI50 (COLO 205) was 82.6 µM (inactive). The GI50 (SK-MEL-28) was > 100 µM (inactive), the GI50 (BT-549) was > 100 µM (inactive) and the GI50 (RPMI-8226) was 46.6 µM (inactive). For the same molecule, the GI50 (MDA-MB-435) was > 100 µM (inactive), the GI50 (SF-268) was > 100 µM (inactive) and the GI50 (Malme-3M) was > 100 µM (inactive). The GI50 (SF-295) was > 100 µM (inactive), the GI50 (SNB-19) was > 100 µM (inactive) and the GI50 (786-0) was > 100 µM (inactive). The GI50 (SK-MEL-2) was > 100 µM (inactive), the GI50 (HCT-116) was > 100 µM (inactive) and the GI50 (TK-10) was > 100 µM (inactive). The GI50 (HCC 2998) was > 100 µM (inactive), the GI50 (OVCAR-5) was > 100 µM (inactive) and the GI50 (EKVX) was > 100 µM (inactive). For the same molecule, the GI50 (CCRF-CEM) was 84.9 µM (inactive), the GI50 (SN12C) was > 100 µM (inactive) and the GI50 (Hs-578T) was > 100 µM (inactive). The GI50 (HOP-62) was > 100 µM (inactive), the GI50 (SR) was 54.7 µM (inactive) and the GI50 (PC-3) was > 100 µM (inactive). The GI50 (UACC-257) was > 100 µM (inactive), the GI50 (T47D) was > 100 µM (inactive) and the GI50 (A549) was > 100 µM (inactive). For the same molecule, the GI50 (KM12) was > 100 µM (inactive), the GI50 (NCI-H226) was > 100 µM (inactive) and the GI50 (NCI/ADR-RES) was > 100 µM (inactive). For the same molecule, the GI50 (U-251) was > 100 µM (inactive), the GI50 (NCI-H522) was > 100 µM (inactive) and the GI50 (LOX IMVI) was > 100 µM (inactive). The GI50 (DU-145) was > 100 µM (inactive), the GI50 (A498) was > 100 µM (inactive) and the GI50 (UACC-62) was > 100 µM (inactive). The GI50 (HOP-92) was > 100 µM (inactive), the GI50 (MOLT-4) was 61.1 µM (inactive) and the GI50 (ACHN) was > 100 µM (inactive). The GI50 (NCI-H460) was > 100 µM (inactive), the GI50 (OVCAR-3) was > 100 µM (inactive) and the GI50 (CAKI-1) was > 100 µM (inactive). For the same molecule, the GI50 (SK-MEL-5) was 71.6 µM (inactive), the GI50 (HL-60) was > 100 µM (inactive) and the GI50 (OVCAR-8) was > 100 µM (inactive). For the same molecule, the GI50 (HT-29) was 70.1 µM (inactive), the GI50 (OVCAR-4) was > 100 µM (inactive) and the GI50 (HCT-15) was > 100 µM. For the same molecule, the GI50 (K562) was > 100 µM (inactive) and the GI50 (NCI-H23) was > 100 µM (inactive).
